Columns and labels:
[1] = In vitro percutaneous passage on static diffusion cells (Franz cells), radiolabelled active ingredients; format: in vitro ADME, human; conditions: 24 hours
Method: Percutaneous absorption is studied in vitro on static diffusion cells, called Franz cells™. The percutaneous passage of the active ingredients is evaluated by measuring the radioactivity using labelled molecules (carbon 14, tritium). The overall quantity of active ingredient absorbed is measured, at different times, in the receiving compartment.
A cutaneous biopsy is horizontally maintained between the two parts of the cell thus delimiting on both sides of the sample, two compartments: one of them epidermic, constituted by a glass cylinder, of a defined area (1.76 cm^2), placed on the upper surface of the skin; the other dermic (or receptor), on the underside of the biopsy, comprises a fixed volume reservoir with a side nozzle. The two compartments are kept in place through the intermediary of a clamp. […]
The preparations to be studied are applied in weighed quantities, using a spatula over all of the epidermal area circumscribed by the glass cone. […] The samples removed are treated with Pico-fluorine 40™ scintillation liquid and the activity measured using a liquid scintillation counter. […]
The percutaneous passage of the active ingredients is evaluated at the time of each sampling by measuring the cumulative quantity (μg) of active ingredient as a function of time.

[2] = known pharmacokinetics; Patent FR 2.776.191; cited from earlier work

Row | Compound | change of percutaneous penetration of estradiol caused by presence of nomegestrol acetate ([1]; gel G29-299 (NAc + E2) versus TX11323 (E2 only)) [%] | plasmatic concentration of nomegestrol acetate for clinical effectiveness (endometrial effect through bleedings) [2] [ng/mL] | change of percutaneous passage of nomegestrol acetate caused by presence of estradiol ([1]; gel G29-299 (NAc + E2) versus G29-287 (NAc only))
1 | C[C@]12CC[C@@H]3c4ccc(O)cc4CC[C@H]3[C@@H]1CC[C@@H]2O [estradiol, 17beta estradiol] | −51 | – | –
2 | CC(=O)O[C@]1(C(C)=O)CC[C@H]2[C@@H]3C=C(C)C4=CC(=O)CC[C@@H]4[C@H]3CC[C@@]21C [nomegestrol acetate] | – | ≥ 0.7 | +39%

— patent US7030104B2, “Topical oestroprogestational compositions with a systemic effect” (Laboratoire Theramex, priority 2000, dated 2006)
